From patent US20100256107A1, “PREPARATION COMPOSITION” (Dainippon Sumitomo Pharma Co., Ltd., priority 2007, published 2010)

Key:
[1] = Control of coloration in an aqueous solution formulation containing sodium carbonate (absorbance 380 nm); assay type: physicochemical; settings: for change in absorbance, just after dissolution / change in absorbance, preservation time 1 hr / change in absorbance, preservation time 2 hr / change in absorbance, preservation time 3 hr / change in absorbance, preservation time 4 hr / change in absorbance, preservation time 5 hr / change in absorbance, preservation time 6 hr: 25° C., 380 nm
Protocol: Multiple vials were prepared, and sodium carbonate, Compound A and imipenem in amounts indicated in Table 14 were weighed, respectively and each mixture was put in each vial. A physiological saline (100 ml) was added to each vial to be dissolved. Coloration (change of color) just after dissolution and when the solution was preserved at one hour intervals for 6 hours at 25° C. were measured by absorbency on Compound A and imipenem.
• Condition of measurement by spectrophotometer • cell: quartz 12.5 mm×12.5 mm×45 mm, capacity 3.5 ml • wavelength: 380 nm • measurement temperature: 25° C. • instrument: UV-2200A (Shimadzu)
The numbers described in columns of “just after dissolution” and each “preservation time” on Table 15 show values of change in absorbance just after dissolution when measured under the above conditions.

[2] = Stability in an aqueous solution of a formulation containing sodium bicarbonate (HPLC); assay type: physicochemical; settings: for reduction of amount of Compound A: 6 hours at 25° C.
Protocol: Multiple vials were prepared and amounts of Compound A and sodium bicarbonate indicated in Table 5 were weighed and filled in each vial. Thereto was added physiological saline (100 ml). Amounts of Compound A and its degradation, Compounds B and C were measured just after dissolution and after preservation for 6 hours at 25° C.
• column: SUMIPAX ODS-A212 (silica gel binding with octadecyl group, • particle size: 5 μm; 6.0 mmφ×15 cm) • detector: ultraviolet spectrophotometer (wavelength: 220 nm) • column temperature: constant temperature around at 25° C. • mobile phase: A solution; 5 mmol/L phosphate buffer (pH7) and acetonitrile (300:23), B solution: acetonitrile • flow rate: 1.0 mL/min. • gradient condition: as shown in Table 6
The numbers described in columns of “just after dissolution” and “after preservation for 6 hours at 25° C.” on Table 8 show area % per total peaks which appear until 55 minutes under the above HPLC conditions.

[3] = 0.5 g/vial + sodium carbonate 0.0 mg/vial in physiological saline 100 ml
[4] = 0.5 g/vial + sodium carbonate 1.0 mg/vial in physiological saline 100 ml
[5] = 0.5 g/vial + sodium carbonate 1.5 mg/vial in physiological saline 100 ml
[6] = 0.5 g/vial + sodium carbonate 2.0 mg/vial in physiological saline 100 ml
[7] = 0.5 g/vial + sodium carbonate 2.5 mg/vial in physiological saline 100 ml
[8] = 0.5 g/vial + sodium carbonate 3.0 mg/vial in physiological saline 100 ml
[9] = Comp. A 0.5 g/vial + sodium bicarbonate 0.0 mg/vial in physiological saline 100 ml
[10] = Comp. A 0.5 g/vial + sodium bicarbonate 1.0 mg/vial in physiological saline 100 ml
[11] = Comp. A 0.5 g/vial + sodium bicarbonate 2.5 mg/vial in physiological saline 100 ml
[12] = Comp. A 0.5 g/vial + sodium bicarbonate 5.0 mg/vial in physiological saline 100 ml
[13] = Comp. A 0.5 g/vial + sodium bicarbonate 10 mg/vial in physiological saline 100 ml
[14] = Comp. A 0.5 g/vial + sodium bicarbonate 15 mg/vial in physiological saline 100 ml
[15] = Comp. A 0.5 g/vial + sodium bicarbonate 20 mg/vial in physiological saline 100 ml
[16] = Comp. A 0.5 g/vial + sodium bicarbonate 50 mg/vial in physiological saline 100 ml
[17] = Comp. A 0.5 g/vial + sodium bicarbonate 100 mg/vial in physiological saline 100 ml

In the case of C[C@H]1C=C(c2csc(SC3=C(C(=O)O)N4C(=O)[C@H]([C@@H](C)O)[C@H]4[C@H]3C)n2)CN1 [Compound A, (4R,5S,6S)-6-[(1R)-1-hydroxyethyl]-4-methyl-3-({4-[(5S)-5-methyl-2,5-dihydro-1H-pyrrol-3-yl]-1,3-thiazol-2-yl}sulfanyl)-7-oxo-1-azabicyclo[3.2.0]hept-2-ene-2-carboxylic acid], the “coloration by the visual inspection compared with a solution just after dissolution” value ([1]; 1.5 mg additive per 500 mg (printed sodium bicarbonate; Table 15: sodium carbonate), 6 hours at 25° C.) is reported as “coloration was not observed by the visual inspection”, the “change in absorbance, just after dissolution” value (“change in absorbance, just” below) [1, 3] is reported as 0.00 Abs and the “change in absorbance, preservation time 1 hr” value [1, 3] is reported as 0.01 Abs. The “change in absorbance, preservation time 2 hr” value [1, 3] was 0.03 Abs, the “change in absorbance, preservation time 3 hr” value [1, 3] was 0.05 Abs and the “change in absorbance, preservation time 4 hr” value [1, 3] was 0.07 Abs. The “change in absorbance, preservation time 5 hr” value [1, 3] was 0.11 Abs, the “change in absorbance, preservation time 6 hr” value [1, 3] was 0.13 Abs and the “change in absorbance, just” value [1, 4] was 0.00 Abs. For the same compound, the “change in absorbance, preservation time 1 hr” value [1, 4] was 0.00 Abs, the “change in absorbance, preservation time 2 hr” value [1, 4] was 0.00 Abs and the “change in absorbance, preservation time 3 hr” value [1, 4] was 0.01 Abs. For the same compound, the “change in absorbance, preservation time 4 hr” value [1, 4] was 0.02 Abs, the “change in absorbance, preservation time 5 hr” value [1, 4] was 0.03 Abs and the “change in absorbance, preservation time 6 hr” value [1, 4] was 0.04 Abs. The “change in absorbance, just” value [1, 5] was 0.00 Abs, the “change in absorbance, preservation time 1 hr” value [1, 5] was 0.00 Abs and the “change in absorbance, preservation time 2 hr” value [1, 5] was 0.00 Abs. For the same compound, the “change in absorbance, preservation time 3 hr” value [1, 5] was 0.00 Abs, the “change in absorbance, preservation time 4 hr” value [1, 5] was 0.00 Abs and the “change in absorbance, preservation time 5 hr” value [1, 5] was 0.01 Abs. For the same compound, the “change in absorbance, preservation time 6 hr” value [1, 5] was 0.02 Abs, the “change in absorbance, just” value [1, 6] was 0.00 Abs and the “change in absorbance, preservation time 1 hr” value [1, 6] was 0.00 Abs. For the same compound, the “change in absorbance, preservation time 2 hr” value [1, 6] was 0.00 Abs, the “change in absorbance, preservation time 3 hr” value [1, 6] was 0.00 Abs and the “change in absorbance, preservation time 4 hr” value [1, 6] was 0.00 Abs. The “change in absorbance, preservation time 5 hr” value [1, 6] was 0.00 Abs, the “change in absorbance, preservation time 6 hr” value [1, 6] was 0.01 Abs and the “change in absorbance, just” value [1, 7] was 0.00 Abs. For the same compound, the “change in absorbance, preservation time 1 hr” value [1, 7] was 0.00 Abs, the “change in absorbance, preservation time 2 hr” value [1, 7] was 0.00 Abs and the “change in absorbance, preservation time 3 hr” value [1, 7] was 0.00 Abs. The “change in absorbance, preservation time 4 hr” value [1, 7] was 0.00 Abs, the “change in absorbance, preservation time 5 hr” value [1, 7] was 0.00 Abs and the “change in absorbance, preservation time 6 hr” value [1, 7] was 0.00 Abs. For the same compound, the “change in absorbance, just” value [1, 8] was 0.00 Abs, the “change in absorbance, preservation time 1 hr” value [1, 8] was 0.00 Abs and the “change in absorbance, preservation time 2 hr” value [1, 8] was 0.00 Abs. For the same compound, the “change in absorbance, preservation time 3 hr” value [1, 8] was 0.00 Abs, the “change in absorbance, preservation time 4 hr” value [1, 8] was 0.00 Abs and the “change in absorbance, preservation time 5 hr” value [1, 8] was 0.00 Abs. The “change in absorbance, preservation time 6 hr” value [1, 8] was 0.00 Abs, the “suppression of coloration of the solution” value ([1]; at least 1.5 mg (0.003 part by weight) of sodium carbonate per 500 mg) was “observed” and the “Comp. A after preservation for 6 hrs. at 25° C.” value (“Comp. A after preservation” for short) [2, 9] was 95.8 area %. The “Comp. A just after dissolution” value [2, 9] was 98.8 area %, the “Comp. B after preservation for 6 hrs. at 25° C.” value (“Comp. B after preservation” for short) [2, 9] was 3.0 area % and the “Comp. B just after dissolution” value [2, 9] was 0.7 area %. The “Comp. C after preservation for 6 hrs. at 25° C.” value (“Comp. C after preservation” for short) [2, 9] was 0.5 area %, the “Comp. C just after dissolution” value [2, 9] was 0.0 area % and the “Comp. A after preservation” value [2, 10] was 96.6 area %. For the same compound, the “Comp. A just after dissolution” value [2, 10] was 98.9 area %, the “Comp. B after preservation” value [2, 10] was 2.7 area % and the “Comp. B just after dissolution” value [2, 10] was 0.7 area %. For the same compound, the “Comp. C after preservation” value [2, 10] was 0.2 area %, the “Comp. C just after dissolution” value [2, 10] was 0.0 area % and the “Comp. A after preservation” value [2, 11] was 96.6 area %. For the same compound, the “Comp. A just after dissolution” value [2, 11] was 98.9 area %, the “Comp. B after preservation” value [2, 11] was 2.8 area % and the “Comp. B just after dissolution” value [2, 11] was 0.7 area %. For the same compound, the “Comp. C after preservation” value [2, 11] was at most 0.1 area %, the “Comp. C just after dissolution” value [2, 11] was 0.0 area % and the “Comp. C after preservation” value ([2]; Comp. A 0.5 g/vial + sodium bicarbonate 2.5 mg/vial in physiological saline 100 ml, listed as Comp. A) was 0.0 area %. The “Comp. A after preservation” value [2, 12] was 96.3 area %, the “Comp. A just after dissolution” value [2, 12] was 98.9 area % and the “Comp. B after preservation” value [2, 12] was 3.0 area %. For the same compound, the “Comp. B just after dissolution” value [2, 12] was 0.6 area %, the “Comp. C after preservation” value [2, 12] was 0.0 area % and the “Comp. C just after dissolution” value [2, 12] was 0.0 area %. For the same compound, the “Comp. A after preservation” value [2, 13] was 95.9 area %, the “Comp. A just after dissolution” value [2, 13] was 98.9 area % and the “Comp. B after preservation” value [2, 13] was 3.5 area %. The “Comp. B just after dissolution” value [2, 13] was 0.7 area %, the “Comp. C after preservation” value [2, 13] was 0.0 area % and the “Comp. C just after dissolution” value [2, 13] was 0.0 area %. For the same compound, the “Comp. A after preservation” value [2, 14] was 95.4 area %, the “Comp. A just after dissolution” value [2, 14] was 98.9 area % and the “Comp. B after preservation” value [2, 14] was 3.9 area %. The “Comp. B just after dissolution” value [2, 14] was 0.6 area %, the “Comp. C after preservation” value [2, 14] was 0.0 area % and the “Comp. C just after dissolution” value [2, 14] was 0.0 area %. The “Comp. A after preservation” value [2, 15] was 95.2 area %, the “Comp. A just after dissolution” value [2, 15] was 98.8 area % and the “Comp. B after preservation” value [2, 15] was 4.1 area %. For the same compound, the “Comp. B just after dissolution” value [2, 15] was 0.6 area %, the “Comp. C after preservation” value [2, 15] was 0.0 area % and the “Comp. C just after dissolution” value [2, 15] was 0.0 area %. The “Comp. A after preservation” value [2, 16] was 93.5 area %, the “Comp. A just after dissolution” value [2, 16] was 98.6 area % and the “Comp. B after preservation” value [2, 16] was 5.5 area %. For the same compound, the “Comp. B just after dissolution” value [2, 16] was 0.7 area %, the “Comp. C after preservation” value [2, 16] was 0.0 area % and the “Comp. C just after dissolution” value [2, 16] was 0.0 area %. For the same compound, the “Comp. A after preservation” value [2, 17] was 92.4 area %, the “Comp. A just after dissolution” value [2, 17] was 98.9 area % and the “Comp. B after preservation” value [2, 17] was 6.6 area %. The “Comp. B just after dissolution” value [2, 17] was 0.6 area %, the “Comp. C after preservation” value [2, 17] was 0.0 area % and the “Comp. C just after dissolution” value [2, 17] was 0.0 area %. The “reduction of amount of Compound A” value ([2]; sodium bicarbonate increased to 20 mg from 15 mg per Compound A 500 mg) was 0.2% and the “reduction of amount of Compound A” value ([2]; sodium bicarbonate increased to 50 mg from 20 mg per Compound A 500 mg) was 1.7%.
